In experiment [1] the target is T1, Prostaglandin G/H synthase 1 (Ovis aries) (UniProt P05979).
T1 sequence (whole entry): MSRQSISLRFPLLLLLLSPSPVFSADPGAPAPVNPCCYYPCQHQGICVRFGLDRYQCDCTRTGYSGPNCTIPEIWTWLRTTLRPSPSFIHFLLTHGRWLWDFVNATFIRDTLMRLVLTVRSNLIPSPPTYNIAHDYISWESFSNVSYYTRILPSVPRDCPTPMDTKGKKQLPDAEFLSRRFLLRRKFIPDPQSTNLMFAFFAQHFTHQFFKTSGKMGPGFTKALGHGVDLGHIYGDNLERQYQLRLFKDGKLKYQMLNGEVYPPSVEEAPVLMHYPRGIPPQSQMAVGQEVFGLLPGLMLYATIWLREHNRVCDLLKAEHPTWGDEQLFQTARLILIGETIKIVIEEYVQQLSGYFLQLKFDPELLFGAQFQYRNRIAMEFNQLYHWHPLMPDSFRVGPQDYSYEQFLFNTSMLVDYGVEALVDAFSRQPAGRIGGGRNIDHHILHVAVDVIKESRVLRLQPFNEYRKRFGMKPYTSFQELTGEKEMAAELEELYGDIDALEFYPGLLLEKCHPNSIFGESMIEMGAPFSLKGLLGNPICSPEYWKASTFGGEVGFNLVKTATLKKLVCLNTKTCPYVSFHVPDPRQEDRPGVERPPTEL
Nature of the experiment: Inhibition of ovine COX1 at 10 uM by ELISA. Background: An ELISA detects its analyte on a solid surface through an enzyme-linked reagent.

The subject of the next experiment is MCF7. Put plainly: cells. The class given is functional, cell-based. The following applies: Homo sapiens, MCF7, 144 h.
For the next experiment, the system named is MDA-MB-231. Put plainly: cells. The class given is functional, cell-based. To be noted: Homo sapiens, MDA-MB-231, 144 h.
The next experiment deals with HT-29. Put plainly: cells. The experiment is classed as functional, cell-based. The following applies: Homo sapiens, HT-29, 144 h.
Experiment [2] deals with Mus musculus. Put plainly: Antiinflammatory activity in overnight fasted Kunming mouse assessed as inhibition of xylene-induced ear swelling at 4 mg/kg, ip administered before challenge for 5 days measured 1 hr post xylene challenge. The class given is functional. The following applies: route intraperitoneal.
The subject of experiment [3] is Mus musculus. Nature of the experiment: Antiinflammatory activity in overnight fasted Kunming mouse assessed as inhibition of xylene-induced ear swelling at 30 mg/kg, ip administered before challenge for 5 days measured 1 hr post xylene challenge. The class given is functional. The following applies: route intraperitoneal.

pIC50: −log10 of the molar value.

Description for HT-29: Antiproliferative activity against human HT-29 cells assessed as growth inhibition after 144 hrs by crystal violet staining method
Description for MCF7: Antiproliferative activity against human MCF7 cells assessed as growth inhibition after 144 hrs by crystal violet staining method
Description for MDA-MB-231: Antiproliferative activity against human MDA-MB-231 cells assessed as growth inhibition after 144 hrs by crystal violet staining method

Consider `CC(=O)Oc1ccccc1C(=O)O`, for which the inhibition in experiment [1] came out at 29%.

In the case of `COc1ccccc1NC(=S)N1CCC(=C2c3ccc(Cl)cc3CCc3cccnc32)CC1`, the pIC50 in the experiment on MCF7 was 5.12; in the experiment with MDA-MB-231, 4.98; in the experiment on HT-29, 5.04. Further, the inhibition in vivo at 4 mg/kg in the experiment on Mus musculus [2] came out at 21.7%.

Consider `S=C(NC1CCCCC1)N1CCC(=C2c3ccc(Cl)cc3CCc3cccnc32)CC1`, for which the inhibition in experiment [1] was found to be 11.6%. The results for the negative-log IC50 (pIC50) with MCF7, in the experiment with MDA-MB-231 and in the experiment with HT-29 were 5.29, 5.09 and 5.21, respectively. Further, the inhibition in vivo at 4 mg/kg in the experiment with Mus musculus [2] turned out to be 30.4%.

As for `CC(C)Cc1ccc(C(C)C(=O)O)cc1` (stereo not drawn) [IBUPROFEN], in the experiment on Mus musculus [3], the inhibition in vivo at 30 mg/kg turned out to be 39.1%. Moreover, the inhibition in vivo at 4 mg/kg in the experiment with Mus musculus [2] came to 8.69%.

For `Cc1ccccc1NC(=S)N1CCC(=C2c3ccc(Cl)cc3CCc3cccnc32)CC1`, the figures for the pIC50 in the experiment with MCF7, with MDA-MB-231 and in the experiment with HT-29 were 5.27, 5.33 and 5.18, respectively. For the same molecule, the inhibition in vivo at 4 mg/kg in the experiment on Mus musculus [2] amounted to 13%.

For the molecule `CNC(=S)N1CCC(=C2c3ccc(Cl)cc3CCc3cccnc32)CC1`, the pIC50 was 5.03 with MCF7, 5.15 in the experiment with MDA-MB-231 and 5.02 with HT-29. The inhibition in vivo at 4 mg/kg with Mus musculus [2] was 26.1%.

`O=c1[nH]cc(F)c(=O)[nH]1` [FLUOROURACIL] showed a pIC50 in the experiment with MCF7 of 5.33.

With `S=C(Nc1ccccc1)N1CCC(=C2c3ccc(Cl)cc3CCc3cccnc32)CC1`, the pIC50 in the experiment on MCF7 is 5.25; in the experiment on MDA-MB-231 it was 5.19; with HT-29 it was 5.17. Moreover, in the experiment on Mus musculus [2], the inhibition in vivo at 4 mg/kg was found to be 21.7%.

As for `CCOC(=O)N1CCC(=C2c3ccc(Cl)cc3CCc3cccnc32)CC1` [LORATADINE], the negative logarithm of the IC50 (pIC50) in the experiment on MCF7 is 5.12; with MDA-MB-231, 5.08; in the experiment on HT-29, 5.21.

A word on the inhibition: it is the share of the control response that was lost under treatment. Low values mean a response near the control, high ones a response far below the control. In general, pIC50 refers to the negative decadic logarithm of the IC50, by convention in mol/L. What is called inhibition in vivo is the change of the read-out against control, counted positive when it falls.

Values taken from ChEMBL document CHEMBL2021765, “Design and synthesis of thiourea derivatives containing a benzo[5,6]cyclohepta[1,2-b]pyridine moiety as potential antitumor and anti-inflammatory agents” (Bioorg Med Chem Lett, 2012).
